This passage reports EC90 and CC90 results from patent publication US20120202794A1 (priority 2011, published 2012).

Molecules are shown by their SMILES.

For one series, the system named is HCV Replicon 1b. As to the kind of experiment: HCV inhibition assay, HCV replicon 1b (Clone A or ET-lunet cells; RT-PCR or luciferase reporter). The format is cell-based. The conditions noted are these: Hepatitis C virus, 96 h, HCV replicon 1b; 4 days incubation; read-out: Replicon 1b potency EC90. In outline:
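Inhibition read either as luciferase signal (ET replicon) or as HCV 5′-NTR RNA by RT-PCR relative to rRNA, % = (1−2^−ΔΔCt)×100, against DMSO controls, giving EC50 and EC90. Cells: Clone A or ET-lunet, seeded 1500 or 3000/well, exposed 4 days at 37 °C, 5% CO2, 0.5% DMSO.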
(In general: In antiviral work, replicon cells carry a viral genome segment that copies itself.)

Series [1] in a line: Cell cytotoxicity assay (MTS), CC90 as reported in Table 1, cell line not stated. Format: cell-based. The conditions noted are these: human, cell line not given. In outline: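 MTS read-out (490 nm, 2 h dye step) after 8-day exposure at 37° C. Huh7, HepG2, BxPC3 were seeded at 2×10^3 and CEM at 5×10^3 cells/well, with compound serially diluted from 100 μM. CC90 comes from comparison with untreated control wells.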

The EC90 is the point of the concentration-response curve where the effect stands at 90%. For `CC(C)C[C@H]1C(=O)NC(c2ccccc2)N1C(=O)[C@H]1C[C@@H]1c1ccc(F)cc1` (stereo in doubt) [Compound 533, (2R,5S)-1-((1S,2S)-2-(4-fluorophenyl)cyclopropane-carbonyl)-5-isobutyl-2-phenyl-imidazolidin-4-one], the 90% effect concentration (EC90) in the series on HCV Replicon 1b was greater than 10000 nM. In series [1] (MTS assay, 8 days incubation), this compound displayed a CC90 at 8 days greater than 10000 nM.
With `CC(C)C[C@H]1C(=O)N[C@H](c2ccccc2)N1C(=O)c1cc(-c2ccc(F)cc2)on1` [Compound 529, (2S,5S)-1-(5-(4-fluorophenyl)isoxazole-3-carbonyl)-5-isobutyl-2-phenylimidazolidin-4-one], the EC90 with HCV Replicon 1b was greater than 10000 nM. The compound further displayed a CC90 at 8 days in series [1] (MTS assay, 8 days incubation) greater than 10000 nM.
As for `CC(C)C[C@H]1C(=O)N[C@@H](c2ccccc2)CN1C(=O)c1noc(-c2ccc(F)cc2F)c1F` [Compound 385, (3S,6S)-4-(5-(2,4-difluorophenyl)-4-fluoroisoxazole-3-carbonyl)-3-isobutyl-6-phenylpiperazin-2-one], the 90% effect concentration (EC90) in the series on HCV Replicon 1b came out at 500 nM. Further, the CC90 at 8 days in series [1] (MTS assay, 8 days incubation) was greater than 10000 nM.
Consider `CC(C)C[C@H]1CN(C(=O)c2noc(-c3ccc(F)cc3)c2F)[C@@H](CC(C)C)C(=O)N1` [Compound 379, (3S,6S)-4-(4-fluoro-5-(4-fluorophenyl)isoxazole-3-carbonyl)-3,6-diisobutylpiperazin-2-one], for which, in the series on HCV Replicon 1b, the concentration for an effect of 90% (EC90) is 210 nM. In addition, the CC90 at 8 days in series [1] (MTS assay, 8 days incubation) was greater than 10000 nM.
With `CSC[C@H]1C(=O)N[C@@H](c2ccccc2)CN1C(=O)c1cc(-c2ccc(F)cc2)on1` [Compound 468, (3R,6S)-4-(5-(4-fluorophenyl)isoxazole-3-carbonyl)-3-((methylthio)methyl)-6-phenylpiperazin-2-one], the 90% effect concentration (EC90) with HCV Replicon 1b was found to be 690 nM. Besides, the CC90 at 8 days in series [1] (MTS assay, 8 days incubation) was greater than 10000 nM.
For the compound `CC(C)C[C@H]1CN(C(=O)/C=C/c2ccc(F)c(F)c2)[C@@H](CC(C)C)C(=O)N1` [Compound 82], the EC90 in the series on HCV Replicon 1b was 1220 nM. Besides, the CC90 at 8 days in series [1] is greater than 10000 nM.
As to `CC(C)C[C@H]1C(=O)N[C@@H](c2ccccc2)N1C(=O)[C@H]1C[C@@H]1c1ccc(F)cc1` [Compound 532, (2R,5S)-1-((1S,2S)-2-(4-fluorophenyl)cyclopropanecarbonyl)-5-isobutyl-2-phenyl-imidazolidin-4-one], the 90% effect concentration (EC90) in the series with HCV Replicon 1b is greater than 10000 nM. For the same compound, in series [1] (MTS assay, 8 days incubation), the CC90 at 8 days was greater than 10000 nM.
Regarding `CC(C)C[C@H]1C(=O)N[C@@H](c2ccsc2)CN1C(=O)c1cc(-c2ccc(F)cc2)no1` [Compound 450, (3S,6S)-4-(3-(4-fluorophenyl)isoxazole-5-carbonyl)-3-isobutyl-6-(thiophen-3-yl)piperazin-2-one], the EC90 in the series on HCV Replicon 1b was found to be 59 nM. This compound also came in with a CC90 at 8 days in series [1] (MTS assay, 8 days incubation) greater than 10000 nM.
Consider `CC(C)C[C@H]1CN(C(=O)[C@@H]2C[C@H]2c2ccc(Cl)cc2F)[C@@H](CC(C)C)C(=O)N1` [Compound 250, (3S,6S)-4-[(1R,2R)-2-(4-Chloro-2-fluoro-phenyl)-cyclopropanecarbonyl]-3,6-diisobutyl-piperazin-2-one], for which the EC90 in the series with HCV Replicon 1b was found to be 360 nM. Besides, the CC90 at 8 days in series [1] is greater than 10000 nM.
As to `CC(C)C[C@H]1C(=O)N[C@@H](CC2CC2)CN1C(=O)c1cc(-c2ccc(F)cc2)no1` [Compound 191], the 90% effect concentration (EC90) with HCV Replicon 1b was determined as 120 nM. The compound also displayed a CC90 at 8 days in series [1] greater than 10000 nM.
Take `CC(C)C[C@H]1C(=O)N[C@@H](c2ccccc2F)CN1C(=O)c1noc(-c2ccc(F)cc2F)c1F` [Compound 386, (3S,6S)-4-(5-(2,4-difluorophenyl)-4-fluoroisoxazole-3-carbonyl)-6-(2-fluorophenyl)-3-isobutylpiperazin-2-one]: in the series with HCV Replicon 1b, the EC90 is 570 nM. In series [1] (MTS assay, 8 days incubation), this compound gave a CC90 at 8 days greater than 10000 nM.
The corresponding values for `CC(C)C[C@H]1C(=O)N[C@@H](c2ccc(F)cc2)CN1C(=O)c1cc(-c2ccc(F)cc2)on1` [Compound 345, (3S,6S)-6-(4-fluorophenyl)-4-(5-(4-fluorophenyl)isoxazole-3-carbonyl)-3-isobutyl-piperazin-2-one] are 650 nM and greater than 10000 nM.
For the compound `CC(C)[C@H]1C(=O)N[C@@H](c2ccccc2)CN1C(=O)[C@@H]1C[C@H]1c1ccccc1` [Compound 402, (3S,6S)-3-isopropyl-6-phenyl-4-((1R,2R)-2-phenylcyclopropanecarbonyl)piperazin-2-one], the 90% effect concentration (EC90) in the series on HCV Replicon 1b is 6630 nM. Besides, the CC90 at 8 days in series [1] (MTS assay, 8 days incubation) is greater than 10000 nM.
For `COc1ccc([C@@H]2C[C@H]2C(=O)N2C[C@H](CC(C)C)NC(=O)[C@@H]2CC(C)C)cc1` [Compound 239, (3S,6S)-3,6-Diisobutyl-4-[(1R,2R)-2-(4-methoxy-phenyl)-cyclopropanecarbonyl]-piperazin-2-one], the 90% effect concentration (EC90) in the series on HCV Replicon 1b worked out at 960 nM. Further, the CC90 at 8 days in series [1] was greater than 10000 nM.
On to `CCC[C@H]1C(=O)N[C@@H](c2cccs2)CN1C(=O)c1cc(-c2ccc(F)cc2)on1` [Compound 491, (3S,6R)-4-(5-(4-fluorophenyl)isoxazole-3-carbonyl)-3-propyl-6-(thiophen-2-yl)piper-azin-2-one], for which the concentration for an effect of 90% (EC90) in the series with HCV Replicon 1b came out at 250 nM. In series [1] (MTS assay, 8 days incubation), this compound registered a CC90 at 8 days greater than 10000 nM.
The corresponding values for `C=CC[C@H]1C(=O)N[C@@H](c2ccccc2)CN1C(=O)[C@@H]1C[C@H]1c1ccc(F)cc1` [Compound 462, (3S,6S)-3-allyl-4-((1R,2R)-2-(4-fluorophenyl)cyclopropanecarbonyl)-6-phenyl-piperazin-2-one] are 1520 nM and greater than 10000 nM.
Regarding `CCC[C@H]1C(=O)N[C@@H](c2ccccc2)CN1C(=O)c1cc(-c2ccc(F)cc2)on1` [Compound 397, (3S,6S)-4-(5-(4-fluorophenyl)isoxazole-3-carbonyl)-6-phenyl-3-propylpiperazin-2-one], in the series with HCV Replicon 1b, the concentration for an effect of 90% (EC90) was found to be 890 nM. The same compound yielded a CC90 at 8 days in series [1] (MTS assay, 8 days incubation) greater than 10000 nM.
The corresponding values for `C/C=C/[C@H]1CN(C(=O)[C@@H]2C[C@H]2c2ccccc2)[C@@H](CC(C)C)C(=O)N1` [Compound 422, (3S,6S)-3-isobutyl-4-((1R,2R)-2-phenylcyclopropanecarbonyl)-6-((E)-prop-1-en-1-yl)piperazin-2-one] are 2100 nM and greater than 10000 nM.
On to `CC(C)C[C@H]1C(=O)N[C@@H](C2CCCC2)CN1C(=O)c1noc(-c2ccc(F)cc2)n1` [Compound 294, (3S,6S)-6-Cyclopentyl-4-(5-(4-fluorophenyl)-1,2,4-oxadiazole-3-carbonyl)-3-isobutylpiperazin-2-one], for which the concentration for an effect of 90% (EC90) in the series on HCV Replicon 1b came out at 350 nM. In series [1] (MTS assay, 8 days incubation), this compound had a CC90 at 8 days greater than 10000 nM.
Consider `CC(C)C[C@H]1CN(C(=O)c2cc(-c3cccs3)on2)[C@@H](CC(C)C)C(=O)N1` [Compound 109], for which, in the series on HCV Replicon 1b, the EC90 came to 540 nM. The compound further registered a CC90 at 8 days in series [1] greater than 10000 nM.
Consider `O=C1N[C@@H](c2ccccc2)CN(C(=O)[C@@H]2C[C@H]2c2ccc(F)cc2)[C@H]1c1cccs1` [Compound 469, (3R,6S)-4-((1R,2R)-2-(4-fluorophenyl)cyclopropanecarbonyl)-6-phenyl-3-(thiophen-2-yl)piperazin-2-one], for which the concentration for an effect of 90% (EC90) in the series on HCV Replicon 1b stood at 1060 nM. In series [1] (MTS assay, 8 days incubation), the CC90 at 8 days is greater than 10000 nM.
With `CC(C)C[C@H]1C(=O)N[C@@H](C(C)C)CN1C(=O)[C@@H]1C[C@H]1c1ccc(Cl)cc1F` [Compound 254, (3S,6S)-4-[(1R,2R)-2-(4-Chloro-2-fluoro-phenyl)-cyclopropanecarbonyl]-3-isobutyl-6-isopropyl-piperazin-2-one], in the series on HCV Replicon 1b, the EC90 amounted to 660 nM. The CC90 at 8 days in series [1] was greater than 10000 nM.
`CC(C)C[C@H]1C(=O)N[C@@H](c2ccccc2)CN1C(=O)c1noc(-c2ccc(Cl)cc2)n1` [Compound 406, (3S,6S)-4-(5-(4-chlorophenyl)-1,2,4-oxadiazole-3-carbonyl)-3-isobutyl-6-phenyl-piperazin-2-one]: the concentration for an effect of 90% (EC90) in the series with HCV Replicon 1b was determined as 230 nM. Moreover, in series [1] (MTS assay, 8 days incubation), the CC90 at 8 days was greater than 10000 nM.
As to `COc1ccccc1-c1cc(C(=O)N2C[C@H](CC(C)C)NC(=O)[C@@H]2CC(C)C)no1` [Compound 131], the EC90 with HCV Replicon 1b was 3490 nM. This compound returned a CC90 at 8 days in series [1] greater than 10000 nM.
As for `CC(C)C[C@H]1CN(C(=O)c2cc(-c3ccccc3F)on2)[C@@H](CC(C)C)C(=O)N1` [Compound 142], the EC90 with HCV Replicon 1b was found to be 2010 nM. In addition, the CC90 at 8 days in series [1] is greater than 10000 nM.
`CSC[C@H]1CN(C(=O)[C@@H]2C[C@H]2c2ccc(Cl)cc2)[C@@H](CC(C)C)C(=O)N1` [Compound 300, (3S,6R)-4-((1R,2R)-2-(4-Chlorophenyl)cyclopropanecarbonyl)-3-isobutyl-6-((methylthio)methyl)piperazin-2-one]: in the series on HCV Replicon 1b, the EC90 turned out to be 780 nM. For the same compound, the CC90 at 8 days in series [1] (MTS assay, 8 days incubation) was greater than 10000 nM.
As to `C/C=C/[C@H]1CN(C(=O)c2noc(-c3ccc(F)cc3)n2)[C@@H](CC(C)C)C(=O)N1` [Compound 448, (3S,6S)-4-(5-(4-fluorophenyl)-1,2,4-oxadiazole-3-carbonyl)-3-isobutyl-6-((E)-prop-1-en-1-yl)piperazin-2-one], in the series with HCV Replicon 1b, the concentration for an effect of 90% (EC90) is 110 nM. Moreover, the CC90 at 8 days in series [1] (MTS assay, 8 days incubation) is greater than 10000 nM.
With `CC(C)C[C@H]1C(=O)N[C@@H](c2cnco2)CN1C(=O)c1noc(-c2ccc(F)cc2)n1` [Compound 518, (3S,6R)-4-(5-(4-fluorophenyl)-1,2,4-oxadiazole-3-carbonyl)-3-isobutyl-6-(oxazol-5-yl)piperazin-2-one], in the series on HCV Replicon 1b, the EC90 amounted to 58 nM. Besides, in series [1] (MTS assay, 8 days incubation), the CC90 at 8 days was greater than 10000 nM.
`CCC[C@H]1CN(C(=O)[C@@H]2C[C@H]2c2ccc(Br)cc2)[C@@H](CC(C)C)C(=O)N1` [Compound 331, (3S,6S)-4-[(1R,2R)-2-(4-Bromo-phenyl)-cyclopropanecarbonyl]-3-isobutyl-6-propyl-piperazin-2-one]: the EC90 in the series on HCV Replicon 1b was 560 nM. The CC90 at 8 days in series [1] (MTS assay, 8 days incubation) is greater than 10000 nM.
On to `CC(C)C[C@H]1C(=O)N[C@H](C2CCOCC2)CN1C(=O)[C@@H]1C[C@H]1c1ccc(F)cc1` [Compound 475, (3S,6R)-4-((1R,2R)-2-(4-fluorophenyl)cyclopropanecarbonyl)-3-isobutyl-6-(tetrahy-dro-2H-pyran-4-yl)piperazin-2-one], for which the 90% effect concentration (EC90) in the series on HCV Replicon 1b is greater than 10000 nM. This compound came in with a CC90 at 8 days in series [1] (MTS assay, 8 days incubation) greater than 10000 nM.
